Results: PubChem BioAssay AID1645868 (Buhrlage Lab, Dana-Farber Cancer Institute and Novartis …, 2021)
Active and inactive are the calls of the source.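 The calls were made as follows: active = maximal percent inhibition of the deubiquitinase OTUD3 of at least 30% across the tested doses; inactive = the rest.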

Target: OTU domain-containing protein 3 (Homo sapiens) (UniProt Q5T2D3)
Assay: Validation of screening hits, potency titration, in vitro enzymatic, OTU domain-containing protein 3 DUB inhibitors (AID 1645868)
Details: purified OTUD3, ubiquitin-rhodamine cleavage fluorescence, 2 h

Chain of OTU domain-containing protein 3 (Homo sapiens) (Q5T2D3 whole entry, looked up, the tested form may be a part): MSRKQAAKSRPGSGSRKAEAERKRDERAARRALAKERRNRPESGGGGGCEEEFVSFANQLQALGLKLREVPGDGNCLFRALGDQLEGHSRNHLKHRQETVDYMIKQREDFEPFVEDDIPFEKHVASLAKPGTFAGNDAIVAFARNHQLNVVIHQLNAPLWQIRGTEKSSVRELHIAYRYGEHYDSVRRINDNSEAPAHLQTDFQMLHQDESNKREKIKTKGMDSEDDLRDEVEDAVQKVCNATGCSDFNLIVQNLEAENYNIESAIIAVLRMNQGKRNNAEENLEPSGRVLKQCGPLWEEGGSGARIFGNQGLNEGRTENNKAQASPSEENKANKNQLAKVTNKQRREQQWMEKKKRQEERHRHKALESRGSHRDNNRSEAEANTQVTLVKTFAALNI

SMILES | IC50
CCCc1nc2sc3c(NCCc4ccc(OC)c(OC)c4)ncnc3c2c2c1CCC2 | > 50 µM (inactive)
Cc1cccc(COc2ccc(C3SCC(=O)Nc4n[nH]c(C)c43)cc2)c1 (centres undefined) | 15.5 µM
Nc1c(-c2ccc(Cl)cc2)cnc2cc(-c3ccc(Cl)c(Cl)c3)nn12 | 16.1 µM
O=C(COC(=O)C1CCCN1C(=O)C12CC3CC(CC(C3)C1)C2)c1ccc(Cl)cc1 (centres undefined) | > 50 µM (inactive)
O=c1c2cnc(N3CCOCC3)nc2ccn1CCc1ccccc1 | 28 µM
Cc1ccc([N+](=O)[O-])cc1S(=O)(=O)Nc1cc2sc(=O)oc2c2ccccc12 | 35.9 µM
Fc1ccccc1Cc1nc(-c2ccc3nncn3c2)no1 | > 50 µM (inactive)
Cc1nc2sc(C(=O)Nc3ccccc3Br)c(N)c2c(C)c1C | 15.5 µM
O=C(O)C1CCN(Cc2c(-c3ccco3)nc3ccc(Cl)cn23)CC1 | > 50 µM (inactive)
c1ccc(CCN2CCc3nc4cccnc4cc3C2)nc1 | > 50 µM (inactive)
CSc1cccc(C(=O)Nc2ccc(-c3nc4ccccc4[nH]3)cc2)c1 | 21.7 µM
O=C(Nc1cc(F)c2nc(N3CCOCC3)ccc2c1)c1ccc(Br)o1 | > 50 µM (inactive)
COc1cccc(NC(=O)Nc2ccc(CCc3nc4ccccc4[nH]3)cc2)c1 | 48.5 µM
Cc1ccc(C(=O)NCc2ccc(C(=O)Nc3cccc(C)c3)o2)cc1 | > 50 µM (inactive)
COc1cccc(N2CCN(C(=O)c3cc(NC(C)=O)cc4nc(C)ccc34)CC2)c1 | > 50 µM (inactive)
N#Cc1ccc(NC(=O)Nc2cccn(Cc3ccccc3Br)c2=O)cc1 | > 50 µM (inactive)
COC(=O)[C@]1(O)O[C@@]2(C(=O)OC)c3c(oc4cc(C)cc(O)c4c3=O)[C@H]3c4c(oc5cc(C)cc(O)c5c4=O)C[C@H]1[C@H]32 | > 50 µM (inactive)

The remaining lines, values ahead:

IC50 | SMILES
> 50 µM (inactive) | O=C(c1ccc2cc[nH]c2c1)N1CCC(Nc2cccnc2)C1 (centres undefined)
> 50 µM (inactive) | O=C(NC1CC1)c1ccnn1-c1ccc2ccc(-c3ccncc3)cn12
> 50 µM (inactive) | COc1ccc(CCNC(=O)c2ccc3ccccc3c2)cc1OC
> 50 µM (inactive) | O=C(Nc1cccc(Cl)c1)N1CCC(c2cc(-c3ccco3)n[nH]2)CC1
> 50 µM (inactive) | Cc1ccc2[nH]c(=O)c(CN(Cc3cccnc3)C(=O)c3cccc(Cl)c3)cc2c1
> 50 µM (inactive) | Cc1nc(-c2ccccn2)sc1C(=O)Nc1ccc(C#N)cc1
> 50 µM (inactive) | CC(C)Oc1ccc(C(=O)Nc2cccc(S(=O)(=O)N3CCCC3)c2)cc1
> 50 µM (inactive) | Cc1ccc(S(=O)(=O)N2CCCCC2)cc1NC(=O)Cc1cccc(F)c1
> 50 µM (inactive) | CCn1cc(-c2cc(C(=O)Nc3cnn(Cc4cccc(F)c4)c3)c3ccccc3n2)cn1
> 50 µM (inactive) | Nc1c(-c2ccc(Cl)cc2)cnc2nc(Sc3ncc(C(F)(F)F)cc3Cl)nn12
21.5 µM | O=C(CCSc1ccc(Cl)cc1)c1cccs1
22.4 µM | COc1cccc(NC(=O)Cc2sc(Nc3cc(C)cc(C)c3)nc2O)c1
> 50 µM (inactive) | N#Cc1ccc(NC(=O)c2ccc(S(=O)(=O)N3CCCCC3)cc2)cc1
> 50 µM (inactive) | O=C(NCCN1CCCC1)C1CCN(c2cnc(N3CCCCC3)nc2)CC1
21.3 µM | N#Cc1c(Cl)cccc1Oc1ccc(S(=O)(=O)N2CCC(O)CC2)cc1
38.2 µM | NS(=O)(=O)c1ccc(NS(=O)(=O)c2ccc(NC(=O)Nc3ccc(Cl)cc3)cc2)cc1
> 50 µM (inactive) | Cc1ccc(-n2cc3c(N4CCCC(C(=O)NCC5CCCCC5)C4)ncnc3n2)cc1 (centres undefined)
> 50 µM (inactive) | COc1ccccc1NC(=O)c1nn(-c2cccc(F)c2)c(OC)cc1=O
> 50 µM (inactive) | COCCn1ccc2nc(C)c(C(=O)Nc3ccc4c(c3)OCCO4)cc2c1=O
> 50 µM (inactive) | CC1CCN(Cc2nnc(-c3cn(CC(=O)NC4CCCCC4)c4ccccc34)o2)CC1
> 50 µM (inactive) | CC1CCCCN1c1nc(F)c2c(c1F)S(=O)(=O)CCN2Cc1ccccc1 (centres undefined)
> 50 µM (inactive) | CSc1nc2ncn(CC(=O)Nc3cccc(Cl)c3)c(=O)c2s1
